Measured values published in publication PMC5111108, “An insecticide resistance-breaking mosquitocide targeting inward rectifier potassium channels in vectors of Zika virus and malaria” (Scientific Reports, 2016).
pIC50: −log10 of the molar value.

Tests used:
Kir4.1 = target: T1, Kir4.1 (Homo sapiens, UniProt P78508); experiment: Tl+ flux assay, mammalian Kir4.1; format: cell-based
T1 construct: expressed in transfected cells
T1 sequence (P78508 1-379): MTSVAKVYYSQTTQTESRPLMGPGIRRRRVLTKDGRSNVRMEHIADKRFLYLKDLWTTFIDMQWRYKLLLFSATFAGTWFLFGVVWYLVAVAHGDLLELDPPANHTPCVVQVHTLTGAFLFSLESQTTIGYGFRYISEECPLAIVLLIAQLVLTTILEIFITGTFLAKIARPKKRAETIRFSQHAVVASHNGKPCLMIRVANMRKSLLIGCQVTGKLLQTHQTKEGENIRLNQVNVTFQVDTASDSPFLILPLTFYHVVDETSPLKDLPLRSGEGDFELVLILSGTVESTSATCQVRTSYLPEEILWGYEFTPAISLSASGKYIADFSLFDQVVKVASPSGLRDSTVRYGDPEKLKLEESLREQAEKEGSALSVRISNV

An. gambiae = experiment: Blood meal processing (abdominal diameter) in An. gambiae; format: in vivo, Anopheles gambiae; details: topical 1 μg/mg (ED30 dose of VU041) immediately after engorgement, over 24 h
Experimental: Blood meal processing studies were performed with similar methods as described above, with the exception that An. gambiae were blood fed on anesthetized mice. All methods were carried out in accordance with Vanderbilt Institutional Animal Care and Use Committee approval (protocol M/13/164 to Dr. Julian Hillyer, Department of Biology, Vanderbilt University). Upon completion of blood feeding, female mosquitoes with a fully distended abdomen were selected and 200 nL of chemical at a non-lethal concentration (1 μg/mg) was applied directly to the abdomen. Any mosquito that died during the 24 h observation period was excluded from the analysis. Images of the abdomens were acquired at 0, 2, 5, 8, and 24 h through the dorsal cuticle and were measured at the widest point of the abdomen. These images were captured using bright-field illumination on a Nikon 90i light microscope (Nikon Corp., Tokyo, Japan) connected to a Photometrics CoolSNAP HQ2 high-sensitivity monochrome CCD camera (Roper Scientific, Ottobrunn, Germany). Digital images were acquired using Nikon Advanced Research NIS-Elements software. Mean abdominal diameters were compared using a one-way ANOVA with a Tukey’s post-hoc analysis (Prism 6, Graphpad Software, La Jolla, CA).

An. gambiae Akron strain = experiment: Topical toxicity bioassay, An. gambiae Akron strain adult females; format: in vivo; details: 24 h, adult female An. gambiae, (95% confidence limits), synergist PBO applied 4 h prior where labelled
Experimental: Topical toxicity bioassays were performed based on the method of Pridgeon et al.[50]. Briefly, non-blood fed adult female mosquitoes were chilled on ice for 1–3 minutes, during which 200 nL of chemical (dissolved in 95% ethanol) was applied onto the abdomen of the insect using a handheld Hamilton® micro-applicator. For synergism studies, 500 ng of the synergist (i.e., piperonyl butoxide [PBO] or S,S,S-tributyl phosphorotrithioate [DEF]) per milligram of mosquito (ng/mg) was applied to the abdomen 4 h prior to application of the insecticide. […] The three ED50 values obtained were then averaged and presented as a mean. An ethanol-only treatment was included in each experiment as a negative control. Treated mosquitoes were transferred to small cages with access to 10% sucrose and held under rearing conditions for 24 h. Mortality was recorded at 24 h.

Ae. aegypti = experiment: Topical toxicity bioassay, Ae. aegypti (LVP and PR strains) adult females; format: in vivo, Aedes aegypti; details: LVP strain
Experimental: Topical toxicity bioassays in adult female Ae. aegypti (LVP and PR strains) were performed as described previously. […] A solvent-only treatment was included in each experiment as a negative control. Treated mosquitoes were transferred to small cages with access to 10% sucrose and held under rearing conditions for 24 h. The efficacy of a dose was measured as the percentage of treated mosquitoes in a cage that were flightless or dead at 24 h. Four to eight replicates of 10 mosquitoes were performed per dose. The ED50 values were determined using a non-linear curve fit analysis (log [inhibitor] vs. response variable-slope) in Prism 6 (Graphpad Software).
Six replicate experiments of 10 mosquitoes were performed.

AnKir1 = target: T2, AnKir1 (Anopheles gambiae, UniProt A0A075M2J8); experiment: Whole-cell patch clamp of AnKir1 in HEK-293T cells; format: cell-based; details: for pIC50: currents at -120 mV
T2 sequence (A0A075M2J8 1-555): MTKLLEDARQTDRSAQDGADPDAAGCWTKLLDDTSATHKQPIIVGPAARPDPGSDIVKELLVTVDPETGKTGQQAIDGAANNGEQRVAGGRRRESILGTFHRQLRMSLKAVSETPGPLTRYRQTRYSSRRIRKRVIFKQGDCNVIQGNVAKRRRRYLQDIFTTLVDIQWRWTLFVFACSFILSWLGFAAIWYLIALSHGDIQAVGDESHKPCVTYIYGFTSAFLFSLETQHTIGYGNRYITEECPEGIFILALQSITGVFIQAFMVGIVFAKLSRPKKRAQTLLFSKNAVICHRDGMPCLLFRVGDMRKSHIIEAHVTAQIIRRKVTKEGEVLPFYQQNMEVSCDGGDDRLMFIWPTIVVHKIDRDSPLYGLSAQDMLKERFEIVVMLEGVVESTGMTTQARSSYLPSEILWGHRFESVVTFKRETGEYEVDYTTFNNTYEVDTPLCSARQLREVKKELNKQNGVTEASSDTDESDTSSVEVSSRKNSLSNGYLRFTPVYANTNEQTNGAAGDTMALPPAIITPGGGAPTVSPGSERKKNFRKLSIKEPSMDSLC
Excerpt: Transiently transfected HEK-293T cells expressing AnKir1 cells were voltage clamped in the whole-cell configuration of the patch clamp technique, as described previously. The extracellular bath solution contained (in mM): 135 NaCl, 5 KCl, 2 CaCl2, 1 MgCl2, 5 glucose, 10 HEPES free acid, pH 7.4, 290 mOsm/kg H2O. The pipette solution contained (in mM): 135 KCl, 2 MgCl2, 1 EGTA, 10 HEPES free acid, 2 Na2ATP (Roche, Indianapolis, IN), pH 7.3, 275 mOsm. Cells were voltage clamped at −75 mV, stepped to −120 mV for 200 msec, and then ramped to 120 mV at a rate of 2.4 mV/msec. Concentration-response curves (CRCs) were constructed by measuring the effects of increasing doses of inhibitors on AnKir1 currents at −120 mV. All recordings were made at room temperature (20–23 °C).
Patch clamp electrophysiology
Patch electrodes were pulled from silanized 1.5 mm outer diameter borosilicate microhematocrit tubes using a P-1000 Flaming/Brown micropipette puller (Sutter Instrument, Novato CA, USA). Electrode resistance ranged from 2 -4 MΩ. Whole-cell currents were recorded under voltage-clamp conditions using an Axopatch 200B amplifier (Molecular D evices, Sunn yvale, CA). Electri cal conn ections to the amplifier were made using Ag/AgCl wires and 3 M KCl/agar bridges. El ectroph ysiologi cal data were collected at 5 kHz and filtered at 1 kHz.
Data acquisition and anal ys is were performed using pClamp 9.2 software (Axon Instruments). […]

SMILES | inhibition at 30 µM (Kir4.1) [%] | change of abdominal diameter after blood meal (An. gambiae) | ED50, Akron Strain (An. gambiae Akron strain) | ED50 (Ae. aegypti; topical, 24 h, flightless or dead) [μg/mg mosquito] | Hill coefficient (patch clamp, AnKir1) (AnKir1) | time-course and reversibility of AnKir1 inhibition (AnKir1; 10 μM, wash-out with control saline) | pIC50 (AnKir1) | topical toxicity (Ae. aegypti; dose near ED50 of VU041, 24 h) | AnKir1 inhibition relative to VU041 (fold less) (AnKir1; patch clamp) [fold]
O=C(Cn1nc(C(F)(F)F)c2c1CCCC2)N1CCCc2ccccc21 [VU041, 1-(3,4-dihydroquinolin-1(2H)-yl)-2-(3-(trifluoromethyl)-4,5,6,7-tetrahydro-1H-indazol-1-yl)ethan-1-one] | < 10 | did not change over the following 24 h period | 2.8 (2.1–4.1) A μg/mg | 3.24 | 1.3 | rapid and partially reversible | 6.30 | – | –
O=C(Cn1ncc2c1CCOC2)N1CCCc2ccccc21 [VU730] | – | – | – | – | – | – | 6.14 | – | –
O=C(Cn1nc(C(F)(F)F)c2c1CCCC2)NC1CCC1 [VU937] | – | decreased significantly over 24 h | >10 µg/mg | – | – | – | 4.53 | not toxic | 60
